{
  "source": "paper PMC6017873",
  "about": "(Molecules : A Journal of Synthetic Chemistry and Natural …, 2018)",
  "key": {"[1]": {"molecular_target": "HDAC1 (Homo sapiens, UniProt Q13547)", "sequence (Q13547 whole entry)": "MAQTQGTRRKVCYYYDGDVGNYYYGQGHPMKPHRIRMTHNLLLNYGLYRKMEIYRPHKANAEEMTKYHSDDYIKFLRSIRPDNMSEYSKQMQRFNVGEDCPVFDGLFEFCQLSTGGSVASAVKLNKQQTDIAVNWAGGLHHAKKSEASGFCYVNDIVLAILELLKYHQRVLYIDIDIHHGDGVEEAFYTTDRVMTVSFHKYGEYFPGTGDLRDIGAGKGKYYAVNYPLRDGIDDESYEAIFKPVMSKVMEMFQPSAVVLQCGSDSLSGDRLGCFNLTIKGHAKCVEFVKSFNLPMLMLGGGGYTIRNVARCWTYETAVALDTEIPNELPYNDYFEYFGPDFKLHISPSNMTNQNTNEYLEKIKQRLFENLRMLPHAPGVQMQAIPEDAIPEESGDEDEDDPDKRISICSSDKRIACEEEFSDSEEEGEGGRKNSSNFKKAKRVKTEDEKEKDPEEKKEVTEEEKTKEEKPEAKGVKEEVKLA", "assay": "Selective in vitro HDAC activity assay, recombinant HDAC1", "assay_type": "biochemical", "details": "100 µM", "procedure": "(§1) (a) In vitro total HDAC activity was evaluated using K-562 nuclear extracts in the presence of various concentrations of eurochevalierine. (b) Selective in vitro HDAC activity assays were carried out using selected recombinant HDAC proteins in the presence of various concentrations of eurochevalierine. Results are reported as percent of DMSO vehicle control and expressed as the mean ± SD of three independent experiments. * and ** indicate p < 0.05 and p < 0.01 versus untreated cells, respectively."}, "[2]": {"test_system": "B16-F10 cells", "assay": "Sub-G1 fraction by PI flow cytometry, B16-F10", "assay_type": "cell-based, murine", "details": "B16-F10, 50 µM, 72 h"}, "[3]": {"molecular_target": "T1, HDAC10 (Homo sapiens, UniProt Q969S8)", "T1 sequence (Q969S8 1-669)": "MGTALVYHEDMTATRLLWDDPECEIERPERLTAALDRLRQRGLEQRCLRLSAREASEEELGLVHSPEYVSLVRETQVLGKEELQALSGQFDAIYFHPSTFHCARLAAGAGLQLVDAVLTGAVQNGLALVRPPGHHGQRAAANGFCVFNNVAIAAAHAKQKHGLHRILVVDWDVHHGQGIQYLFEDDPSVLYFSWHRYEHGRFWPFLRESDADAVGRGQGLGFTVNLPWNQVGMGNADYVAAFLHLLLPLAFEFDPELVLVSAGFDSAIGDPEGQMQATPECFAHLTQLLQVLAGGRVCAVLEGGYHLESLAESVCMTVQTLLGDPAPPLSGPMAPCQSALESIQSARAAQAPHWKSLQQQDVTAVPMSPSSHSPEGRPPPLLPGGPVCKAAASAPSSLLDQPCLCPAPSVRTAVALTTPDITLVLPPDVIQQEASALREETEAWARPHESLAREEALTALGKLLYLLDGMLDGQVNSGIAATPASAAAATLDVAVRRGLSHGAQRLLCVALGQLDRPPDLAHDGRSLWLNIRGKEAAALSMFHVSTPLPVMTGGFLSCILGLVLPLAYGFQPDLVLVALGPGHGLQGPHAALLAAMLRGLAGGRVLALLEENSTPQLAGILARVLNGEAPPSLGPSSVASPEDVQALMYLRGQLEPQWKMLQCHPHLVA", "assay": "Selective in vitro HDAC activity assay, recombinant HDAC10", "assay_type": "biochemical", "details": "100 µM", "procedure": "as §1"}, "[4]": {"test_system": "panel of cancer cell lines", "parameters": "method as in PMID 22976482", "details": "read-out: mean IC50 for the growth inhibition of cancer cells; cited from earlier work"}, "[5]": {"test_system": "total HDAC activity (K-562 nuclear extracts)", "assay": "In vitro total HDAC activity using K-562 nuclear extracts", "assay_type": "biochemical, human", "details": "100 µM", "procedure": "as §1"}, "[6]": {"molecular_target": "T2, HDAC11 (Homo sapiens, UniProt Q96DB2)", "T2 sequence (Q96DB2 1-347)": "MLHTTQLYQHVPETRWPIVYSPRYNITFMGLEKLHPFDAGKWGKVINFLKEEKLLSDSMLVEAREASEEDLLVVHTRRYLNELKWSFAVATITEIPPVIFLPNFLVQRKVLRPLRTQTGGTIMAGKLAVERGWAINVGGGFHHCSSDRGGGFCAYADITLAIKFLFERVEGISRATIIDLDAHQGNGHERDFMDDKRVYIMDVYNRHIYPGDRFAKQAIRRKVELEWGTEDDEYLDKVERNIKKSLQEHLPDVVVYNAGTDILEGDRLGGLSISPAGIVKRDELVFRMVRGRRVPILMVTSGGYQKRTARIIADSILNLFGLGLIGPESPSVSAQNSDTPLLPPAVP", "assay": "Selective in vitro HDAC activity assay, recombinant HDAC11", "assay_type": "biochemical", "procedure": "as §1"}, "[7]": {"molecular_target": "HDAC3 (Homo sapiens, UniProt O15379)", "sequence (O15379 whole entry)": "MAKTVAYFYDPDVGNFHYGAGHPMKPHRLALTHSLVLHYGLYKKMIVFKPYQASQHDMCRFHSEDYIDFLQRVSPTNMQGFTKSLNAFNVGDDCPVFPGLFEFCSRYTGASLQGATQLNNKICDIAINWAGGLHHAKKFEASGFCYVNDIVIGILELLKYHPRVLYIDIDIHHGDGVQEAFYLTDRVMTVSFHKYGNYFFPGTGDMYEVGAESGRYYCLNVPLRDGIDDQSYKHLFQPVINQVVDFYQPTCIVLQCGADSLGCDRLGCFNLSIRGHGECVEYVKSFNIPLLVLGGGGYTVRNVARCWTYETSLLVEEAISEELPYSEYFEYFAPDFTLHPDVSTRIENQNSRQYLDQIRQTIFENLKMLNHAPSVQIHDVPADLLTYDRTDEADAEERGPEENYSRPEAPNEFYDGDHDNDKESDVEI", "sequence (Q9Y618 395-489 partner limits assumed)": "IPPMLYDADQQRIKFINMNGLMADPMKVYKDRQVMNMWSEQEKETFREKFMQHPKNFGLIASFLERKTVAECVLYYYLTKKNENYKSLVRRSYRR", "assay": "Selective in vitro HDAC activity assay, recombinant HDAC3", "assay_type": "biochemical", "details": "100 µM", "procedure": "as §1"}, "[8]": {"molecular_target": "T3, HDAC8 (Homo sapiens, UniProt Q9BY41)", "T3 sequence (Q9BY41 1-377)": "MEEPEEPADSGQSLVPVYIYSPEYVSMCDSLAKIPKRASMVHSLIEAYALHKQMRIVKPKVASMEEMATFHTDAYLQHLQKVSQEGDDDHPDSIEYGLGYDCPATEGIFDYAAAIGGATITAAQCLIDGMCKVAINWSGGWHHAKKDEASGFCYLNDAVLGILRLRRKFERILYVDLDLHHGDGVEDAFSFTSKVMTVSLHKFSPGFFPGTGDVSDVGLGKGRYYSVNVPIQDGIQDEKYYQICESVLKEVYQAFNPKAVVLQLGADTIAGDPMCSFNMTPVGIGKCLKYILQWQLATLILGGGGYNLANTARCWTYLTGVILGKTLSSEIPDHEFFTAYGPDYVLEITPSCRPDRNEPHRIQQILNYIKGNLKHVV", "assay": "Selective in vitro HDAC activity assay, recombinant HDAC8", "assay_type": "biochemical", "details": "100 µM", "procedure": "as §1"}},
  "data": [
    {"smiles": "C=C(C)[C@@H]1CC[C@@H](C)[C@@]2(O)[C@@H]1C=C(C)[C@@H](OC(C)=O)[C@@H]2OC(=O)[C@H](CC(=O)c1ccccc1NC)NC=O", "note": "[Eurochevalierine, eurochevalierine]", "values": [
      {"measurement": "effect on HDAC1 deacetylase activity", "setting": "[1]", "result": "without effect"},
      {"measurement": "sub-G1 fraction", "setting": "[2]", "result": "did not increase the sub-G1 fraction"},
      {"measurement": "effect on HDAC10 deacetylase activity", "setting": "[3]", "result": "without effect"},
      {"measurement": "IC50", "setting": "[4]", "result": 28, "unit": "µM"},
      {"measurement": "inhibition of total HDAC activity", "setting": "[5]", "result": "about 33%"},
      {"measurement": "inhibition at 100 µM", "setting": "[6]", "result": "~51", "unit": "%"},
      {"measurement": "induction of HDAC3 activity", "setting": "[7]", "result": 1.5, "unit": "fold"},
      {"measurement": "effect on HDAC8 deacetylase activity", "setting": "[8]", "result": "without effect"}
    ]}
  ]
}
